Laboratory results from PubChem BioAssay AID2060887 (Molecular Pharmacology Branch, DTP, NCI, 2025).

Test system: 782815-120-R-J1-PDC complex spheroid viability
Assay: Anticancer human tumor 782815-120-R-J1-PDC patient-derived colon adenocarcinoma cell line growth inhibition [RAS]
Settings: for IC50: curve of first compound; for viability, T/C: stronger effect = lower value
In short: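 Tumour cells grown as complex spheroids with HUVEC endothelial cells and mesenchymal stem cells, treated with RAS pathway inhibitor combinations. Each agent spans half-log steps from near clinical Cmax, or 10 microM where Cmax is unknown.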

[1] = second compound 0.00316 µM, first compound 0.0316 µM
[2] = second compound 0.00316 µM, first compound 0.1 µM
[3] = second compound 0.00316 µM, first compound 0.316 µM
[4] = second compound 0.00316 µM, first compound 1 µM
[5] = second compound 0.00316 µM, first compound 3.16 µM
[6] = second compound 0.00316 µM, first compound 10 µM
[7] = second compound 0.01 µM, first compound 0.0316 µM
[8] = second compound 0.01 µM, first compound 0.1 µM
[9] = second compound 0.01 µM, first compound 0.316 µM
[10] = second compound 0.01 µM, first compound 1 µM
[11] = second compound 0.01 µM, first compound 3.16 µM
[12] = second compound 0.01 µM, first compound 10 µM
[13] = second compound 0.0316 µM, first compound 0.0316 µM
[14] = second compound 0.0316 µM, first compound 0.1 µM
[15] = second compound 0.0316 µM, first compound 0.316 µM
[16] = second compound 0.0316 µM, first compound 1 µM
[17] = second compound 0.0316 µM, first compound 3.16 µM
[18] = second compound 0.0316 µM, first compound 10 µM
[19] = second compound 0.1 µM, first compound 0.0316 µM
[20] = second compound 0.1 µM, first compound 0.1 µM
[21] = second compound 0.1 µM, first compound 0.316 µM
[22] = second compound 0.1 µM, first compound 1 µM
[23] = second compound 0.1 µM, first compound 3.16 µM
[24] = second compound 0.1 µM, first compound 10 µM
[25] = second compound 0.316 µM, first compound 0.0316 µM
[26] = second compound 0.316 µM, first compound 0.1 µM
[27] = second compound 0.316 µM, first compound 0.316 µM
[28] = second compound 0.316 µM, first compound 1 µM
[29] = second compound 0.316 µM, first compound 3.16 µM
[30] = second compound 0.316 µM, first compound 10 µM
[31] = second compound 1 µM, first compound 0.0316 µM
[32] = second compound 1 µM, first compound 0.1 µM
[33] = second compound 1 µM, first compound 0.316 µM
[34] = second compound 1 µM, first compound 1 µM
[35] = second compound 1 µM, first compound 3.16 µM
[36] = second compound 1 µM, first compound 10 µM
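Further: spheroids exposed to compounds for 7 days before reading.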
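Wherever viability, T/C is given: 100% = DMSO vehicle control viability.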

## CC(Nc1ccc2c(c1)OCCn1cc(N3C(=O)OCC3C(F)F)nc1-2)C(N)=O (stereo unspecified) + C=CC(=O)N1CCN(c2nc(OCC3CCCN3C)nc3c(F)c(-c4nc(N)cc(C)c4C(F)(F)F)c(Cl)cc23)C(C)C1
Second compound 0.00316 µM
  IC50: > 10 µM
Second compound 0.01 µM
  IC50: > 10 µM
Second compound 0.0316 µM
  IC50: > 10 µM
Second compound 0.1 µM
  IC50: > 10 µM
Second compound 0.316 µM
  IC50: > 10 µM
Second compound 1 µM
  IC50: > 10 µM
[1]
  viability, T/C: 92.9%
[2]
  viability, T/C: 87.6%
[3]
  viability, T/C: 88.4%
[4]
  viability, T/C: 79.1%
[5]
  viability, T/C: 99.6%
[6]
  viability, T/C: 103%
[7]
  viability, T/C: 93.5%
[8]
  viability, T/C: 98.6%
[9]
  viability, T/C: 95.8%
[10]
  viability, T/C: 83.6%
[11]
  viability, T/C: 103%
[12]
  viability, T/C: 98.8%
[13]
  viability, T/C: 93.2%
[14]
  viability, T/C: 93.6%
[15]
  viability, T/C: 82.3%
[16]
  viability, T/C: 80.6%
[17]
  viability, T/C: 87.8%
[18]
  viability, T/C: 93.3%
[19]
  viability, T/C: 88.3%
[20]
  viability, T/C: 91.1%
[21]
  viability, T/C: 94.1%
[22]
  viability, T/C: 86.1%
[23]
  viability, T/C: 102%
[24]
  viability, T/C: 93.2%
[25]
  viability, T/C: 93.6%
[26]
  viability, T/C: 86.4%
[27]
  viability, T/C: 86.4%
[28]
  viability, T/C: 89.2%
[29]
  viability, T/C: 85.1%
[30]
  viability, T/C: 101%
[31]
  viability, T/C: 95.2%
[32]
  viability, T/C: 79.5%
[33]
  viability, T/C: 87.2%
[34]
  viability, T/C: 85.2%
[35]
  viability, T/C: 97.8%
[36]
  viability, T/C: 92.8%

## CCN1CCN(Cc2ccc(Nc3ncc(F)c(-c4cc(F)c5nc(C)n(C(C)C)c5c4)n3)nc2)CC1 + C=CC(=O)N1CCN(c2nc(OCC3CCCN3C)nc3c(F)c(-c4nc(N)cc(C)c4C(F)(F)F)c(Cl)cc23)C(C)C1
Second compound 0.00316 µM
  IC50: > 1 µM
Second compound 0.01 µM
  IC50: > 1 µM
Second compound 0.0316 µM
  IC50: > 1 µM
Second compound 0.1 µM
  IC50: > 1 µM
Second compound 0.316 µM
  IC50: > 1 µM
Second compound 1 µM
  IC50: > 1 µM
Second compound 0.00316 µM, first compound 0.00316 µM
  viability, T/C: 95.3%
Second compound 0.00316 µM, first compound 0.01 µM
  viability, T/C: 98.8%
[1]
  viability, T/C: 99.3%
[2]
  viability, T/C: 101%
[3]
  viability, T/C: 105%
[4]
  viability, T/C: 128%
Second compound 0.01 µM, first compound 0.00316 µM
  viability, T/C: 98.9%
Second compound 0.01 µM, first compound 0.01 µM
  viability, T/C: 97.2%
[7]
  viability, T/C: 95.8%
[8]
  viability, T/C: 98.2%
[9]
  viability, T/C: 104%
[10]
  viability, T/C: 118%
Second compound 0.0316 µM, first compound 0.00316 µM
  viability, T/C: 102%
Second compound 0.0316 µM, first compound 0.01 µM
  viability, T/C: 105%
[13]
  viability, T/C: 99.5%
[14]
  viability, T/C: 103%
[15]
  viability, T/C: 108%
[16]
  viability, T/C: 118%
Second compound 0.1 µM, first compound 0.00316 µM
  viability, T/C: 93.4%
Second compound 0.1 µM, first compound 0.01 µM
  viability, T/C: 96.1%
[19]
  viability, T/C: 106%
[20]
  viability, T/C: 103%
[21]
  viability, T/C: 108%
[22]
  viability, T/C: 116%
Second compound 0.316 µM, first compound 0.00316 µM
  viability, T/C: 96.5%
Second compound 0.316 µM, first compound 0.01 µM
  viability, T/C: 96.5%
[25]
  viability, T/C: 102%
[26]
  viability, T/C: 99.3%
[27]
  viability, T/C: 111%
[28]
  viability, T/C: 117%
Second compound 1 µM, first compound 0.00316 µM
  viability, T/C: 92%
Second compound 1 µM, first compound 0.01 µM
  viability, T/C: 90.8%
[31]
  viability, T/C: 104%
[32]
  viability, T/C: 96.1%
[33]
  viability, T/C: 108%
[34]
  viability, T/C: 123%

## C[C@@H](NC(=O)c1ncnc(N)c1Cl)c1ncc(C(=O)Nc2cc(C(F)(F)F)c(Cl)cn2)s1 + C=CC(=O)N1CCN(c2nc(OCC3CCCN3C)nc3c(F)c(-c4nc(N)cc(C)c4C(F)(F)F)c(Cl)cc23)C(C)C1
Second compound 0.00316 µM
  IC50: > 10 µM
Second compound 0.01 µM
  IC50: > 10 µM
Second compound 0.0316 µM
  IC50: > 10 µM
Second compound 0.1 µM
  IC50: > 10 µM
Second compound 0.316 µM
  IC50: > 10 µM
Second compound 1 µM
  IC50: > 10 µM
[1]
  viability, T/C: 100%
[2]
  viability, T/C: 106%
[3]
  viability, T/C: 97%
[4]
  viability, T/C: 86%
[5]
  viability, T/C: 83.8%
[6]
  viability, T/C: 72.1%
[7]
  viability, T/C: 104%
[8]
  viability, T/C: 105%
[9]
  viability, T/C: 104%
[10]
  viability, T/C: 88.6%
[11]
  viability, T/C: 80.8%
[12]
  viability, T/C: 71.8%
[13]
  viability, T/C: 116%
[14]
  viability, T/C: 107%
[15]
  viability, T/C: 96.6%
[16]
  viability, T/C: 90%
[17]
  viability, T/C: 90.2%
[18]
  viability, T/C: 71.2%
[19]
  viability, T/C: 111%
[20]
  viability, T/C: 101%
[21]
  viability, T/C: 96.8%
[22]
  viability, T/C: 99.8%
[23]
  viability, T/C: 89.9%
[24]
  viability, T/C: 66.3%
[25]
  viability, T/C: 108%
[26]
  viability, T/C: 113%
[27]
  viability, T/C: 97.3%
[28]
  viability, T/C: 101%
[29]
  viability, T/C: 85%
[30]
  viability, T/C: 74.5%
[31]
  viability, T/C: 114%
[32]
  viability, T/C: 108%
[33]
  viability, T/C: 98.5%
[34]
  viability, T/C: 110%
[35]
  viability, T/C: 92.6%
[36]
  viability, T/C: 65.5%
